Measurements taken from PubChem BioAssay AID602482 (Sanford-Burnham Center for Chemical Genomics, 2012).
Activity calls are given as the source filed them.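 How the source made its calls: active means compounds whose mean concentration giving half-maximal cell killing is 20 µM or lower; inactive means the rest.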

System: NTR1-U2OS viability, ATPLite luminescence, 24 h
Test: U2OS cell viability loss by ATP – luminescence, ATPLite, cytotoxicity control for NTR1 agonist project, SAR follow-up (AID 602482)

Row | SMILES | IC50
1 | COc1cccc(OC)c1-c1nc(C(=O)N[C@@H](CC(C)C)C(=O)O)cn1-c1ccnc2cc(Cl)ccc12 | > 80 µM (inactive)
2 | COc1cc2nc(C3CC3)nc(N3CCN(c4ccccc4OC)CC3)c2cc1OC | 25.4 µM (inactive)
